Measurements as given in patent US6600091B1, “Enzymes responsible for the metabolism of zeatin” (The State of Oregon acting by and through the State Board …, priority 1998, dated 2003).

Legend:
[1] = target: T1, Recombinant Protein Encoded by the ORF of Zeatin O-xylosyltranferase (Phaseolus vulgaris, UniProt P56725); experiment: Cytokinin conversion assay with recombinant protein encoded by the ORF of zeatin O-xylosyltransferase (radio-labeled cytokinin + glycosyl donor, HPLC); type: biochemical, Phaseolous vulgaris; conditions: for Substrate Left (%) / Substrate Left CPM / Product (%) / Product CPM: 125 μl protein from culture supernatant, 4 hrs
T1 construct: the ORF of the gene was excised from the pGem-T vector (Promega) using the restriction enzymes Not1 and Sal1; made in house; host or cells: E. coli BL21(DE3) pLysS
T1 sequence (P56725 1-454): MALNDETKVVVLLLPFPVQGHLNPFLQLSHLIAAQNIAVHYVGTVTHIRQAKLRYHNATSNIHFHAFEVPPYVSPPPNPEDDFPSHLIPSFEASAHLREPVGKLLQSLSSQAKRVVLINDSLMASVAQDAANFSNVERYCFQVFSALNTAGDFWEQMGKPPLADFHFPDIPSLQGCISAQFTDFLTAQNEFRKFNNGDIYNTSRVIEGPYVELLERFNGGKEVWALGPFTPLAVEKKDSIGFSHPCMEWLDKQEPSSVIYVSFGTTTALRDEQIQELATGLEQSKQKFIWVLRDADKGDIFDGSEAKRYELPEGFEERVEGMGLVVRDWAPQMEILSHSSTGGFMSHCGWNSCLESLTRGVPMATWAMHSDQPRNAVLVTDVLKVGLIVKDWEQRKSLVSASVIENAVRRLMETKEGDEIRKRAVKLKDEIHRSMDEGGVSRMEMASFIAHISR
Text: Isolation of recombinant zeatin O-xylosyltransferase proteins. Zeatin O-xylosyltransferase protein was purified using the same techniques as described above. Briefly, the coding sequences were ligated into an IPTG inducible plasmid which was transformed into Epicurian Coli BL21(DE3) pLysS Competent cells (Stratagene, LaJolla, Calif.). IPTG was then used to induce protein. Cells were subsequently lysed and the protein was separated out through the use of ion exchange chromatography.
(§1) Assay for cytokinin conversion activity and analysis of reaction products. […] Briefly, ^14C-labeled cytokinins (specific activity of 24 mCi/mmol), glycosyl donor (3 mM of UDPG or UDPX), MgCl2 (0.05M) and ATP (0.5 mM) in 1 mM Tris, pH 8.0 were incubated with a specified amount of the recombinant protein at 27° C. […] The supernatant was concentrated to 100 μl in vacuo (Speed Vac Concentrator, Savant) and analyzed by HPLC using a reversed phase C18column.
(§2) The aqueous buffer consisted of 0.2M acetic acid adjusted to pH 3.5 with TEA. Samples were eluted with a linear gradient of methanol (5-50% over 90 minutes) in TEA buffer. The flow rate was 1 mL/min. and 0.5 mL fractions were collected. […] Radioactivity in these fractions was determined in Ready-Gel scintillation fluid (Beckman) with a Beckman LS 7000 scintillation counter.
Isolation and authentication of zeatin O-xylosyltransferase cDNA clones. To assess the enzyme activity of the protein encoded by zeatin O-xylosyltransferase, the ORF of the gene was excised from the pGem-T vector (Promega) using the restriction enzymes Not1 and Sal1. The resulting fragment was then ligated into the Not1/Sal1 site of the pZipLox plasmid.

[2] = target: T2, Recombinant Zeatin O-glucosyltransferase (Phaseolus lunatus, UniProt Q9ZSK5); experiment: Cytokinin conversion assay with recombinant zeatin O-glucosyltransferase (14C-cytokinin + glycosyl donor, products separated by HPLC); type: biochemical, Phaseolous lunatus
T2 construct: the polypeptide encoded by the ORF plus the 5′ untranslated region and the α-peptide from the cloning vector; alpha-peptide encoded by the cloning vector (33 amino acids, pZL1/ZipLox); made in house; host or cells: E. coli BL21(DE3) pLysS
T2 sequence (Q9ZSK5 1-459): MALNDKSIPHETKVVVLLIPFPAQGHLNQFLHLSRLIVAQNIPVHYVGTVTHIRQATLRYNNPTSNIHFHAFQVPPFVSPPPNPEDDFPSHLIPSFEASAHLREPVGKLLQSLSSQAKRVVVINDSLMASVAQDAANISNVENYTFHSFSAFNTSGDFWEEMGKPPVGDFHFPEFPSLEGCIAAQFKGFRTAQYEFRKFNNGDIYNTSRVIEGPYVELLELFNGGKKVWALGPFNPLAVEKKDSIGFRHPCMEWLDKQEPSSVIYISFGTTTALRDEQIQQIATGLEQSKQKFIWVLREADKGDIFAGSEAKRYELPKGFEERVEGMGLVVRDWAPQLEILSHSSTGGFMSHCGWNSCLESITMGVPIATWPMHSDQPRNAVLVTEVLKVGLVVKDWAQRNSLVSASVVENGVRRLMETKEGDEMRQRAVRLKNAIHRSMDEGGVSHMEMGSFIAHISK
Method: Isolation of recombinant zeatin O-glucosyltransferase proteins. To obtain recombinant proteins, purified plasmids were transformed into Epicurian Coli BL21(DE3) pLysS Competent cells (Stratagene, LaJolla, Calif.) following the recommended protocol. Colonies were selected on AMP-LB plates. An individual colony was grown overnight in SOC-AMP media and 0.5 ml of the culture was used to inoculate 50 mls of SOC-AMP media. […] After 4 hours cells were collected and frozen at −80° C. overnight. Cells were lysed the next day by thawing and resuspending in 0.5 ml of 0.2 M Tris pH 7.5 containing 1 mg/ml of lysozyme. DNAase (1 μg/10 μl sample) was added after a 10-min. cycle of freeze-thaw at −80° C. Soluble proteins were collected after centrifugation. Recombinant proteins were further purified on a DEAE anion exchange column using the Bio-Rad Biologic liquid chromatography system.
as §1, §2

[3] = glycosyl donor UDPG, A: 200 μl supernatant from lysed cells, approx. 1 nmole 14C-labeled zeatin, 2 hr
[4] = glycosyl donor UDPG, B: DEAE-purified proteins (4 μg), approx. 0.5 nmole 14C-cytokinin
[5] = glycosyl donor UDPX, A: 200 μl supernatant from lysed cells, approx. 1 nmole 14C-labeled zeatin, 2 hr

| Compound | Substrate Left (%) ([1]; glycosyl donor UDPX) | Substrate Left CPM ([1]; glycosyl donor UDPX) [CPM] | Product (%) ([1]; glycosyl donor UDPX) | Product CPM ([1]; glycosyl donor UDPX) [CPM] | Product (%) [2, 4] [%] | Product CPM [2, 4] [CPM] | Substrate Left (%) [2, 4] [%] | Substrate Left CPM [2, 4] [CPM] | further results |
| --- | --- | --- | --- | --- | --- | --- | --- | --- | --- |
| C/C(=C/CNc1ncnc2nc[nH]c12)CO [cis-Z, Cis-zeatin] | 100 | 29460 | – | – | – | – | – | – | – |
| C/C(=C\CNc1ncnc2[nH]cnc12)CO [Z, trans-zeatin] | 18 | 7768 | 82 | 35838 | 14 | 3731 | 86 | 23115 | Conversion of zeatin (in words) ([1]; UDPG as the sugar donor): no detectable conversion; Substrate Left (%) ([1]; glycosyl donor UDPG): 100%; Substrate Left CPM ([1]; glycosyl donor UDPG): 41679 CPM; Product (%) [2, 3]: 100%; Product CPM [2, 3]: 39715 CPM; Substrate Left (%) [2, 3]: 0 (0%); Substrate Left CPM [2, 3]: 0 (0%) CPM; Conversion to O-glucosylzeatin (in words) ([2]; glycosyl donor UDPG, supernatant with recombinant protein, listed as 14C-zeatin): efficiently converted; Product (%) [2, 5]: 18%; Product CPM [2, 5]: 4956 CPM; Substrate Left (%) [2, 5]: 82%; Substrate Left CPM [2, 5]: 23078 CPM |
| CC(CO)CCNc1ncnc2nc[nH]c12 (stereo not drawn) [DHZ, dihydrozeatin] | 22 | 9244 | 78 | 33237 | 1 | 329 | 99 | 24178 | Formation of O-glucosyldihydrozeatin (in words) ([2]; DEAE-column purified recombinant protein): trace |
| C/C(=C\CNc1ncnc2c1ncn2[C@@H]1O[C@H](CO)[C@@H](O)[C@H]1O)CO [RZ, ribosylzeatin] | 100 | 39238 | – | – | – | – | – | – | – |
